Read-outs that look alike come from different tables or passages of the source.

The record followed here is patent US10335409B2 (priority 2012, dated 2019).

The test system of assay [1] is genotype 1a (H77) wild type transient HCV replicon in Huh-7-derived cells. The assay is described as follows: Transient-transfected HCV replicon EC50, genotype 1a wild type. The assay is classed as cell-based, hepatitis C virus. The conditions noted are these: 72 h, transient-transfected replicon genotype 1a wild type, read-out: EC50 1A WT. Background: A replicon is a self-replicating genome or part of one, used to study replication in cells.

The test system of assay [2] is genotype 2a (JFH-1) stable HCV replicon in Huh-7-derived cells. The assay is described as follows: Stable subgenomic HCV replicon EC50, genotype 2a (Renilla luciferase). It counts as cell-based, hepatitis C virus. The conditions noted are these: stable replicon genotype 2a, 72 h, read-out: EC50 2A RLUC. An outline of the steps: (§1)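 Compounds, three-fold diluted, were applied to Huh-7-derived cells harbouring luciferase replicons (genotype 1a H77, 1b Con1, 2a JFH-1, 4a ED43, with strain-specific adaptive mutations). Seventy-two hours later, intracellular replication was gauged by Renilla luciferase activity and EC50 derived by regression.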

The subject of assay [3] is genotype 3a (S52) stable HCV replicon in Huh-7-derived cells. The assay is described as follows: Stable subgenomic HCV replicon EC50, genotype 3a (Renilla luciferase). It counts as cell-based, hepatitis C virus. Particulars: 72 h, read-out: EC50 3A RLUC.
Assay [4] deals with genotype 4a (ED43) stable HCV replicon in Huh-7-derived cells. The assay is described as follows: Stable subgenomic HCV replicon EC50, genotype 4a (Renilla luciferase). It counts as cell-based, hepatitis C virus. The conditions noted are these: 72 h, read-out: EC50 4A RLUC. An outline of the steps:
as §1

Assay [5] has as its system genotype 1b NS3/4a protease inhibitor resistant variant D168A transient HCV replicon in Huh-7-derived cells. The assay is described as follows: Transient-transfected HCV replicon EC50, genotype 1b D168A. It counts as cell-based, hepatitis C virus. Particulars: 72 h.
For assay [6], the system named is genotype 1a NS3/4a protease inhibitor resistant variant R155K transient HCV replicon in Huh-7-derived cells. The assay is described as follows: Transient-transfected HCV replicon EC50, genotype 1a R155K. It counts as cell-based, hepatitis C virus. The conditions noted are these: 72 h.
The test system of assay [7] is genotype 3a (S52) wild type transient HCV replicon in Huh-7-derived cells. The assay is described as follows: Transient-transfected HCV replicon EC50, genotype 3a wild type. The assay is classed as cell-based, hepatitis C virus. Particulars: transient-transfected replicon genotype 3a wild type, 72 h, read-out: EC50 3A WT.
The subject of assay [8] is genotype 1b (Con1) stable HCV replicon in Huh-7-derived cells. The assay is described as follows: Stable subgenomic HCV replicon EC50, genotype 1b (Renilla luciferase). The assay is classed as cell-based, hepatitis C virus. The conditions noted are these: stable replicon genotype 1b, 72 h, read-out: EC50 1B RLUC. An outline of the steps:
as §1

Assay [9] deals with HCV NS3 protease domain genotype 3a (Hepatitis C virus genotype 3a, UniProt Q81258). The assay is described as follows: Ki determination, NS3 protease genotype 3a (fluorogenic depsipeptide substrate). The assay is classed as biochemical. The conditions noted are these: 200 pM enzyme, NS4A peptide. An outline of the steps:
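The NS3 protease domain (aa 1-181) with 20 μM NS4A peptide was used at 50 pM with 4 μM substrate (1b) or at 200 pM with 2 μM substrate (3a). Inhibitors (100 nM-5 pM) were pre-incubated 1 h at room temperature in HEPES/glycerol/DTT buffer with 10% DMSO. Steady-state rates (90-120 min) gave Ki via the Morrison equation, corrected for active enzyme and [S]/Km.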

Assay [10] relates to genotype 1b (Con1) wild type transient HCV replicon in Huh-7-derived cells. The assay is described as follows: Transient-transfected HCV replicon EC50, genotype 1b wild type. The assay is classed as cell-based, hepatitis C virus. Particulars: 72 h, transient-transfected replicon genotype 1b wild type, read-out: EC50 1B WT.
Assay [11] relates to genotype 1a (H77) stable HCV replicon in Huh-7-derived cells. The assay is described as follows: Stable subgenomic HCV replicon EC50, genotype 1a (Renilla luciferase). The assay is classed as cell-based, hepatitis C virus. The conditions noted are these: stable replicon genotype 1a, 72 h, read-out: EC50 1A RLUC. A digest of the protocol:
as §1

For assay [12], the target named is HCV NS3 protease domain genotype 1b (Hepatitis C virus genotype 1b (isolate Con1), UniProt Q9WMX2, E1202G). The assay is described as follows: Ki determination, NS3 protease genotype 1b (fluorogenic depsipeptide substrate). The assay is classed as biochemical. The conditions noted are these: 50 pM enzyme, NS4A peptide. The protocol: Purified NS3 protease domain (amino acids 1-181) of the genotype 1b and 3a virus were generated as above.
Sequence of HCV NS3 protease domain genotype 1b (Q9WMX2 1027-1208 E1202G): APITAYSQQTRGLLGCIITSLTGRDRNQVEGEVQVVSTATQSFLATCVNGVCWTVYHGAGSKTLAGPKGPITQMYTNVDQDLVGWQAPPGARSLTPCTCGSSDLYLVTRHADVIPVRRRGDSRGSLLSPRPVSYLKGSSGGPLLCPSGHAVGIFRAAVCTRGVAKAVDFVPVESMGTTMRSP
Reactions were run at room temperature in buffer consisting of 50 mM HEPES, 40% glycerol, 0.05% Triton X-100, 10 mM DTT, and 10% DMSO. The final assay solutions contained 50 pM NS3 genotype 1 b protease or 200 pM genotype 3a protease, 20 μM NS4A peptide, and 4 μM substrate (genotype 1b) or 2 μM substrate (genotype 3a). Inhibitor concentrations varied from 100 nM to 5 pM in 3-fold dilutions, and no-inhibitor controls were included.
Compound dilutions were made in DMSO at 20× final concentration. Reaction mixtures were prepared in 96-well assay plates. A solution of enzyme and NS4A peptide in assay buffer (25 μL volume with both reagents at 4× final concentration) was mixed with 45 μL assay buffer and 5 μL of either inhibitor or DMSO, and pre-incubated at room temperature for 1 hour. The reaction was started by addition of 25 μL substrate solution at 4× final concentration. Plates were mixed vigorously for 5-10 seconds and reactions were allowed to proceed for 90 minutes, fluorescence was measured every 30 s between 90 and 120 minutes reaction time using a Tecan InfiniTe M1000 or PerkinElmer Envision multimode plate reader with an excitation wavelength of 340 nm and an emission wavelength of 490 nm.
To determine the Ki, rates were plotted as a function of inhibitor concentration, and the data were fit with equation 1 (Morrison, J. F., Biochimica et Biophysica Acta 1969, 185, 269-286) to calculate Ki^app using GraphPad Prism 5. […] Ki was calculated from Ki^app/(1+[[S]/Km]).

The mark [13] stands for this setting: Hepatitis C virus, read-out: EC50 1B D168A, transient-transfected replicon genotype 1b D168A resistant variant, 72 h.
[14] abbreviates: Hepatitis C virus, read-out: EC50 1A R155K, transient-transfected replicon genotype 1a R155K resistant variant, 72 h.
[15] abbreviates: stable replicon genotype 3a, Renilla luciferase.
Where [16] appears, read: stable replicon genotype 4a, Renilla luciferase.
Setting [17] is: transient-transfected replicon genotype 1a R155K resistant variant, read-out: EC50 1A R155K.

Sequence of HCV NS3 protease domain genotype 3a (Q81258 whole entry, looked up, the tested form may be a part): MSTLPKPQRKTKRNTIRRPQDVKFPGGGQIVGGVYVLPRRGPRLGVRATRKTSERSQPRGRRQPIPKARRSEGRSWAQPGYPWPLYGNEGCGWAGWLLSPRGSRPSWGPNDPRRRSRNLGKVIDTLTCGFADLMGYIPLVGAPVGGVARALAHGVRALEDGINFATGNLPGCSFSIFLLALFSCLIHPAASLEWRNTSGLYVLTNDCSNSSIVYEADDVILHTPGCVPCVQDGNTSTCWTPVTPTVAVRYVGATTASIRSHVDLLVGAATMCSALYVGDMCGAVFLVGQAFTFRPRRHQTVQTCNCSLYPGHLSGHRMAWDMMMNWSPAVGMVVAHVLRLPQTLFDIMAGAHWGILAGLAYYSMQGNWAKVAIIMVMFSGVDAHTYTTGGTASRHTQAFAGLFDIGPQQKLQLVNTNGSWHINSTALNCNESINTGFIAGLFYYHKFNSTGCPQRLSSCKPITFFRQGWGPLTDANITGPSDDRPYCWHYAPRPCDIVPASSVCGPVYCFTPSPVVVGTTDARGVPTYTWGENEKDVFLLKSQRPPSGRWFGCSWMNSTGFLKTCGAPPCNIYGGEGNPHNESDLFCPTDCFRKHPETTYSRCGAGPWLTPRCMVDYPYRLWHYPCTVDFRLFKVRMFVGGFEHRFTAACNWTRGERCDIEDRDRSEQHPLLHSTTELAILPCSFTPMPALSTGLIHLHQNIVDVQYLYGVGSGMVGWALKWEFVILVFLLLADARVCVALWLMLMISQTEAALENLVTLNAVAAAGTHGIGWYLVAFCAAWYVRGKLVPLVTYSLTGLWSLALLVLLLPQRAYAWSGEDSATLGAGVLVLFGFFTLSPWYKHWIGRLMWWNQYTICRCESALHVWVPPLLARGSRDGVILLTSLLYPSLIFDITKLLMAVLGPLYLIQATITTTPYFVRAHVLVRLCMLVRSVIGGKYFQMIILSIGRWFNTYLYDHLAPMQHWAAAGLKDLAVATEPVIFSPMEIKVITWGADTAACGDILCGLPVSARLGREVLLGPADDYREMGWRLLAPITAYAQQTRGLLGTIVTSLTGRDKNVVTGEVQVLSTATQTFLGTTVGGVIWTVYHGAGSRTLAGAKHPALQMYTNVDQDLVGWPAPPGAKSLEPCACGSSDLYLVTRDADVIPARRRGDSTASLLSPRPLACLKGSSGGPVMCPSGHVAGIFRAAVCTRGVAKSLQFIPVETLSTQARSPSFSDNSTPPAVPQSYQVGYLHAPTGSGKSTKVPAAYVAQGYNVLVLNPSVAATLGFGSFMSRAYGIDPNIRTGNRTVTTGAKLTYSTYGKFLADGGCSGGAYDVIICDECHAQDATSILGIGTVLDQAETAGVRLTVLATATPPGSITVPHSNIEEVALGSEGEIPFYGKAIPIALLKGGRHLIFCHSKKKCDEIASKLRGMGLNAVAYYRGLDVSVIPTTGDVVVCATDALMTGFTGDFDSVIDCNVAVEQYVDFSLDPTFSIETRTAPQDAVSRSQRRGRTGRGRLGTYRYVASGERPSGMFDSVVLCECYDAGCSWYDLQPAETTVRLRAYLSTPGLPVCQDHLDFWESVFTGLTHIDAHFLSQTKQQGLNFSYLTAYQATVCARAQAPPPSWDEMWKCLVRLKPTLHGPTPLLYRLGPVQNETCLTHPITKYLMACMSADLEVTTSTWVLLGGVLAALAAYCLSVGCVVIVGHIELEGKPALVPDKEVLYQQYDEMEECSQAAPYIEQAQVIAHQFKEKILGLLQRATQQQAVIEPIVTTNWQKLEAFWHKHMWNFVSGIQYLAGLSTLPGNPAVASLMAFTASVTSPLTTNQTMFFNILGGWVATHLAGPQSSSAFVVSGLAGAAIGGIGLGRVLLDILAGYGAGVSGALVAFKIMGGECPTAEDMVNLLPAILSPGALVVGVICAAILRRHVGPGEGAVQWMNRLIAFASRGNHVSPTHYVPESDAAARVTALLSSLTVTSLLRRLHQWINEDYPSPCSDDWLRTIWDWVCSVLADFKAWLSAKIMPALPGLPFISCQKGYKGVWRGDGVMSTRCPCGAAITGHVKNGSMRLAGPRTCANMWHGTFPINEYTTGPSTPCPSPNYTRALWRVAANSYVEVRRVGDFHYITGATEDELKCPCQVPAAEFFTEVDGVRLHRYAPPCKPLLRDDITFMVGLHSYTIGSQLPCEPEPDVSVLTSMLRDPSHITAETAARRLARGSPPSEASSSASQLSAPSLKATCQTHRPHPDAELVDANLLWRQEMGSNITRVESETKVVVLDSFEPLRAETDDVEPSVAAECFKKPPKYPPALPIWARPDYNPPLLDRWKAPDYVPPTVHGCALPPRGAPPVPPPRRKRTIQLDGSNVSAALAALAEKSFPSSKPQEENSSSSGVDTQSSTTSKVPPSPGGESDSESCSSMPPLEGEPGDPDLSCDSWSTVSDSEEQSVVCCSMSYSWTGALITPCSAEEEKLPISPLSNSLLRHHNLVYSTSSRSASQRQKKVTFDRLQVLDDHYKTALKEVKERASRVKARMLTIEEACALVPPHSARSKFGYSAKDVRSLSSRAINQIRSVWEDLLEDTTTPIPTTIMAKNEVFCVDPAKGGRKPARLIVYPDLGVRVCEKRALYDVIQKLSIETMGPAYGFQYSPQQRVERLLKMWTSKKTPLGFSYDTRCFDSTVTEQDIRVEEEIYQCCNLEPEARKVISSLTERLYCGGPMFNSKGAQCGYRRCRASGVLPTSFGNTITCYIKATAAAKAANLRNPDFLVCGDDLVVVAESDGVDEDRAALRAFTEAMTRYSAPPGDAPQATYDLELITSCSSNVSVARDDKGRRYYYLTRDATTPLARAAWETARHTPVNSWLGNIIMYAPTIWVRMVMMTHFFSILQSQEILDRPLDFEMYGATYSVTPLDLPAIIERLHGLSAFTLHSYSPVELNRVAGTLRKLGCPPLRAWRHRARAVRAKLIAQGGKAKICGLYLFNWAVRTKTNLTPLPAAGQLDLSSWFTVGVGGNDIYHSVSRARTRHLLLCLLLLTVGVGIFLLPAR

Take `COc1ccc2nc3c(nc2c1)O[C@H]1CN(C(=O)[C@H](C(C)(C)C)NC(=O)O[C@@H]2C[C@@H]4C[C@@H]4[C@H]2CCCCC3)[C@H](C(=O)NC2(C(=O)NS(=O)(=O)C3CC3)C[C@H]2C(F)F)[C@@H]1C` (stereo in doubt) [Example 33, (1aS,2aR,6S,9S,10S,11R,23aR,23bS)-6-tert-butyl-N-[(1 S,2R)-1-[(cyclopropylsulfonyl)carbamoyl]-2-(difluoromethyl)cyclopropyl]-15-methoxy-10-methyl-4,7-dioxo-1a,2,2a,4,5,6,7,10,11,19,20,21,22,23,23a,23b-hexadecahydro-1H,9H-8,11-methanocyclopropa[4′,5′]cyclopenta[1′,2′:18,19][1,10,3,6]dioxadiazacyclononadecino[11,12-b]quinoxaline-9-carboxamide]: the EC50 in assay [1] (Hepatitis C virus) is 2.6 nM; in assay [2] (Hepatitis C virus), 4.9 nM; in assay [3] (Hepatitis C virus), 16 nM; in assay [4] (Hepatitis C virus), 2.3 nM; in assay [5] (setting [13]), 4.2 nM; in assay [6] (setting [14]) it was 2.5 nM. The EC50 is 5.3 nM in assay [7] (Hepatitis C virus), 2.8 nM in assay [8] (Hepatitis C virus), 1.6 nM in [10] (Hepatitis C virus) and 7.6 nM in [11] (Hepatitis C virus). In addition, the Ki stood at 0.06 nM in assay [9] and 0.03 nM in assay [12].

With `COc1ccc2nc3c(nc2c1)O[C@H]1CN(C(=O)[C@H](C(C)(C)C)NC(=O)O[C@@H]2C[C@H]2CCCCC3)[C@H](C(=O)N[C@]2(C(=O)NS(=O)(=O)C3(C)CC3)C[C@H]2C(F)F)[C@@H]1C1CC1` [Example 31, (1aR,5S,8S,9S,10R,22aR)-5-tert-butyl-9-cyclopropyl-N-[(1R,2R)-2-(difluoromethyl)-1-{[(1-methylcyclopropyl)sulfonyl]carbamoyl}cyclopropyl]-14-methoxy-3,6-dioxo-1,1a,3,4,5,6,9,10,18,19,20,21,22,22a-tetradecahydro-8H-7,10-methanocyclopropa[18,19][1,10,3,6]dioxadiazacyclononadecino[11,12-b]quinoxaline-8-carboxamide], the EC50 in assay [1] worked out at 27 nM; in [2], 63 nM; in [3] (setting [15]), 2070 nM; in assay [4] (setting [16]), 20 nM; in assay [5] (transient-transfected replicon genotype 1b D168A resistant variant, read-out: EC50 1B D168A), 805 nM; in [6] (setting [17]), 154 nM. In addition, the EC50 turned out to be 18 nM in assay [8], 6.6 nM in assay [10] and 40 nM in assay [11]. In addition, the Ki in assay [9] amounted to 4.9 nM; in [12], 0.13 nM.

For `COc1ccc2nc3c(nc2c1)O[C@H]1CN(C(=O)[C@H](C2(C)CCCC2)NC(=O)O[C@@H]2C[C@H]2CCCCC3)[C@H](C(=O)N[C@]2(C(=O)NS(=O)(=O)C3(C)CC3)C[C@H]2C(F)F)[C@@H]1C` [Example 38, (1aR,5S,8S,9S,10R,22aR)—N-[(1R,2R)-2-(difluoromethyl)-1-{[(1-methylcyclopropyl)sulfonyl]carbamoyl}cyclopropyl]-14-methoxy-9-methyl-5-(1-methylcyclopentyl)-3,6-dioxo-1,1a,3,4,5,6,9,10,18,19,20,21,22,22a-tetradecahydro-8H-7,10-methanocyclopropa[18,19][1,10,3,6]dioxadiazacyclononadecino[11,12-b]quinoxaline-8-carboxamide], the EC50 was determined as 4.5 nM in [1] (Hepatitis C virus); 5.4 nM in [2] (Hepatitis C virus); 151 nM in assay [3] (Hepatitis C virus); 5.5 nM in assay [4] (Hepatitis C virus); 25 nM in assay [5] (setting [13]); 8.4 nM in assay [6] (setting [14]). Besides, the EC50 worked out at 4.2 nM in [8] (Hepatitis C virus), 2.8 nM in assay [10] (Hepatitis C virus) and 7.8 nM in [11] (Hepatitis C virus). Also, the Ki was 0.7 nM in assay [9] and 0.03 nM in [12].

For the molecule `COc1ccc2nc3c(nc2c1)O[C@H]1CN(C(=O)[C@H](C(C)(C)C)NC(=O)O[C@@H]2CCN(C(C)=O)C2CCCCC3)[C@H](C(=O)N[C@]2(C(=O)NS(=O)(=O)C3(C)CC3)C[C@H]2C(F)F)[C@@H]1C` (stereo partly drawn) [Example 80, (3aR,7S,10S,11S,12R)-1-acetyl-7-tert-butyl-N-[(1R,2R)-2-(difluoromethyl)-1-{[(1-methylcyclopropyl)sulfonyl]carbamoyl}cyclopropyl]-16-methoxy-11-methyl-5,8-dioxo-1,2,3,3a,5,6,7,8,11,12,20,21,22,23,24,24a-hexadecahydro-10H-9,12-methanopyrrolo[2′,3′:18,19][1,10,3,6]dioxadiazacyclononadecino[11,12-b]quinoxaline-10-carboxamide], the 50% effective concentration (EC50) was 403 nM in [1] (Hepatitis C virus); 748 nM in assay [2] (Hepatitis C virus); 44400 nM in assay [3] (Hepatitis C virus); 1180 nM in [4] (Hepatitis C virus); 443 nM in [5] (setting [13]); 2860 nM in assay [6] (setting [14]). Also, the figures for the EC50 in [8] (Hepatitis C virus), in assay [10] (Hepatitis C virus) and in assay [11] (Hepatitis C virus) were 344 nM, 53 nM and 1130 nM, respectively. The Ki in assay [9] came out at 13 nM; in [12] it was 0.49 nM.

Consider “(1aR,5S,8S,9S,10R,22aR)-5-tert-butyl-N-[(1R,2R)-2-(difluoromethyl)-1-{[(1-methylcyclopropyl)sulfonyl]carbamoyl}cyclopropyl]-8-fluoro-14-methoxy-9-methyl-3,6-dioxo-1,1a,3,4,5,6,9,10,18,19,20,21,22,22a-tetradecahydro-8H-7,10-methanocyclopropa[18,19][1,10,3,6]dioxadiazacyclononadecino[1,12-b]quinoxaline-8-carboxamide [Example 47]”, for which the EC50 in assay [1] stood at 5.4 nM; in assay [2] it was 12 nM; in [3] (setting [15]) it was 58 nM; in assay [4] (setting [16]), 4.2 nM; in assay [6] (setting [17]), 6.1 nM; in assay [7] it was 17 nM. In addition, the EC50 in [8] is 3.6 nM; in assay [10], 2 nM; in [11] it was 3.8 nM. Also, the inhibition constant (Ki) in assay [9] turned out to be 0.19 nM; in assay [12], 0.07 nM.

The EC50 is the concentration that produces a half-maximal response. In general, Ki refers to a measure of affinity in units of concentration, obtained from inhibition or displacement. Low readings indicate higher affinity, high ones lower affinity.
